Results from ChEMBL document CHEMBL1201862, “PubChem BioAssay data set” (2004).
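Cells were grown in 96-well plates and exposed to each compound for 48 hours at five concentrations; endpoints were interpolated linearly between bracketing concentrations, or set to the highest concentration if not reached. GI50 = concentration required for 50% inhibition of growth.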 Activity calls are given as the source filed them. No stated cut-off is given here; in the data, active = GI50 up to about 1.1 µM and inactive = higher.

What was measured:
Experiment in all cases: NCI-60 cell line screen, 48 h
HCT-116 = tested on: HCT-116
HT-29 = tested on: HT-29
OVCAR-4 = tested on: OVCAR-4
SK-MEL-2 = tested on: SK-MEL-2
A498 = tested on: A498
PC-3 = tested on: PC-3
ACHN = tested on: ACHN
K562 = tested on: K562
NCI-H460 = tested on: NCI-H460
SF-539 = tested on: SF-539
LOX IMVI = tested on: LOX IMVI
Hs-578T = tested on: Hs-578T
BT-549 = tested on: BT-549
HOP-62 = tested on: HOP-62
SF-295 = tested on: SF-295
SK-MEL-28 = tested on: SK-MEL-28
COLO 205 = tested on: COLO 205
RPMI-8226 = tested on: RPMI-8226
HOP-92 = tested on: HOP-92

Measured: GI50

O=C(O)c1nn[nH]c1Cl
inactive: HCT-116 > 100 µM | HT-29 > 100 µM | OVCAR-4 > 100 µM | SK-MEL-2 > 100 µM | A498 > 100 µM | PC-3 > 100 µM | ACHN > 100 µM | K562 > 100 µM | NCI-H460 > 100 µM | SF-539 > 100 µM | LOX IMVI > 100 µM | Hs-578T > 100 µM | BT-549 > 100 µM | HOP-62 > 100 µM | SF-295 > 100 µM | SK-MEL-28 > 100 µM | COLO 205 > 100 µM | RPMI-8226 > 100 µM

Cc1c2c(n3c(nc4ccccc43)c1C#N)N(c1ccc(F)cc1)CC2
inactive: HCT-116 > 100 µM | HT-29 > 100 µM | OVCAR-4 41.4 µM | SK-MEL-2 > 100 µM | A498 > 100 µM | PC-3 > 100 µM | ACHN > 100 µM | HOP-92 > 100 µM | NCI-H460 > 100 µM | SF-539 > 100 µM | LOX IMVI > 100 µM | Hs-578T 71.1 µM | BT-549 > 100 µM | HOP-62 > 100 µM | SF-295 > 100 µM | SK-MEL-28 > 100 µM | COLO 205 > 100 µM

COc1ccc2c(c1)/C(=C(\C(Cl)=C(\Cl)N1CCCCC1)[N+](=O)[O-])N2
inactive: HCT-116 > 100 µM | HT-29 > 100 µM | OVCAR-4 87.5 µM | A498 > 100 µM | PC-3 > 100 µM | ACHN > 100 µM | K562 42.1 µM | HOP-92 > 100 µM | NCI-H460 > 100 µM | LOX IMVI > 100 µM | Hs-578T > 100 µM | BT-549 98.6 µM | HOP-62 > 100 µM | SF-295 80.5 µM | SK-MEL-28 > 100 µM | COLO 205 59.2 µM

Cn1c(=O)c2[nH]c(N=O)nc2n(C)c1=O
inactive: HCT-116 > 100 µM | HT-29 > 100 µM | OVCAR-4 > 100 µM | SK-MEL-2 > 100 µM | A498 > 100 µM | PC-3 > 100 µM | K562 > 100 µM | NCI-H460 > 100 µM | SF-539 > 100 µM | LOX IMVI > 100 µM | Hs-578T > 100 µM | BT-549 > 100 µM | HOP-62 > 100 µM | SF-295 > 100 µM | SK-MEL-28 > 100 µM | COLO 205 > 100 µM | RPMI-8226 > 100 µM

COc1cc(-c2ccccc2)cn2c1nc1ccccc12
inactive: HCT-116 20.9 µM | HT-29 17.3 µM | SK-MEL-2 22.1 µM | PC-3 18.8 µM | ACHN 20 µM | K562 25.2 µM | HOP-92 14.5 µM | NCI-H460 21.2 µM | SF-539 26.6 µM | LOX IMVI 22.3 µM | Hs-578T 27.6 µM | BT-549 17.8 µM | HOP-62 19.9 µM | SK-MEL-28 17 µM | COLO 205 19.2 µM | RPMI-8226 20.9 µM

Cn1c(=O)oc2cc(C(=S)N3CCC(Cc4ccccc4)CC3)ccc21
inactive: HCT-116 > 100 µM | HT-29 > 100 µM | SK-MEL-2 > 100 µM | A498 > 100 µM | PC-3 > 100 µM | ACHN > 100 µM | K562 61.7 µM | NCI-H460 > 100 µM | SF-539 > 100 µM | LOX IMVI > 100 µM | Hs-578T > 100 µM | BT-549 > 100 µM | HOP-62 > 100 µM | SF-295 > 100 µM | SK-MEL-28 > 100 µM | COLO 205 > 100 µM | RPMI-8226 62.1 µM

CC(C)(C)OC(=O)NC(Cc1ccc(OCc2ccccc2)cn1)C(N)=O (configuration not stated)
inactive: HCT-116 > 100 µM | HT-29 > 100 µM | OVCAR-4 45.7 µM | A498 > 100 µM | PC-3 > 100 µM | ACHN > 100 µM | K562 > 100 µM | HOP-92 > 100 µM | NCI-H460 > 100 µM | SF-539 > 100 µM | LOX IMVI > 100 µM | Hs-578T > 100 µM | BT-549 > 100 µM | HOP-62 > 100 µM | SF-295 > 100 µM | SK-MEL-28 > 100 µM | COLO 205 > 100 µM | RPMI-8226 > 100 µM

CCOC(=O)c1nc2ccc(C(F)(F)F)cc2nc1Nc1ccc(F)cc1
inactive: HCT-116 > 100 µM | HT-29 > 100 µM | OVCAR-4 > 100 µM | SK-MEL-2 > 100 µM | A498 > 100 µM | PC-3 > 100 µM | ACHN > 100 µM | K562 > 100 µM | HOP-92 19 µM | NCI-H460 28.9 µM | SF-539 57.5 µM | LOX IMVI > 100 µM | Hs-578T 21.9 µM | BT-549 > 100 µM | HOP-62 58.9 µM | SF-295 49.2 µM | SK-MEL-28 > 100 µM | COLO 205 > 100 µM
